Broadly, the EC50 is the concentration giving half of the maximal effect. Higher therefore signals a less potent agent.

In US7462644B2, “Therapeutic agents” (AstraZeneca AB, priority 2002, dated 2008) one finds EC50 data, which are given here for 5 molecules.

Molecules are shown by their SMILES.

This test concerns the target T1, human PPAR alpha (Homo sapiens, UniProt Q07869).
T1 sequence (Q07869 1-468): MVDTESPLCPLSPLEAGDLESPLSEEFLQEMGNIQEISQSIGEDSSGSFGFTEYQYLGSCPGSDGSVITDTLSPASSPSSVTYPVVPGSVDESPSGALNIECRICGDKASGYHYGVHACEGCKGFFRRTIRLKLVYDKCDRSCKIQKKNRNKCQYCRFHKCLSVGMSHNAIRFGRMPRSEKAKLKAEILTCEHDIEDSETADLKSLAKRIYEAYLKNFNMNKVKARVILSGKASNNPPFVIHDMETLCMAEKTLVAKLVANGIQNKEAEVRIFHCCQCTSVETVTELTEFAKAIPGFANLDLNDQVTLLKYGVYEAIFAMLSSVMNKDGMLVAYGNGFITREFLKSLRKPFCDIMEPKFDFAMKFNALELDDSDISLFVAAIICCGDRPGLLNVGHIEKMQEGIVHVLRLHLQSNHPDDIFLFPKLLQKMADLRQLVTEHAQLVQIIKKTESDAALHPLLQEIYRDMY
Briefly: PPARα EC50 assay (assays described in WO03/051821). The class given is cell-based. How it is done: The compounds of the invention were tested in the assays described in WO03/051821.
Molecule `CCCCN(Cc1ccc(C(F)(F)F)cc1)C(=O)COc1ccc(C[C@H](OCC)C(=O)O)cc1` [Example 5] showed an EC50 of 3 nM. In turn, `CCO[C@@H](Cc1ccc(OCC(=O)N(CC)Cc2ccc(OC(F)(F)F)cc2)cc1)C(=O)O` [Example 3] had an EC50 of 3 nM. This lies in the single-digit nanomolar range. `CCCCN(Cc1ccc(C(F)(F)F)cc1F)C(=O)COc1ccc(C[C@H](OCC)C(=O)O)cc1` [Example 1, (2S)-3-[4-(2-{Butyl[2-fluoro-4-(trifluoromethyl)benzyl]amino}-2-oxoethoxy)phenyl]-2-ethoxy propanoic Acid]: the EC50 was determined as 1 nM. Then `CCO[C@@H](Cc1ccc(OCC(=O)N(CC)Cc2ccc(Cl)cc2)cc1)C(=O)O` [Example 2, (2S)-3-(4-{2-[(4-Chlorobenzyl)(ethyl)amino]-2-oxoethoxy}phenyl)-2-ethoxypropanoic Acid], with 3 nM.

For the molecule `CCO[C@@H](Cc1ccc(OCC(=O)N(CC)Cc2ccc(C(F)(F)F)cc2)cc1)C(=O)O` [Example 4, (2S)-2-Ethoxy-3-[4-(2-{ethyl[4-(trifluoromethyl)benzyl]amino}-2-oxoethoxy)phenyl]propanoic Acid], the EC50 is 5 nM. Against the preceding molecule, the EC50 is about 1.7-fold higher.
